# What was measured:
# Type in all cases: in vivo, human
# [1] = tested on: adult subjects with schizophrenia; assay: PANSS general psychopathology subscale score, Clinical Study Three; conditions: for PANSS general psychopathology subscale score, treatment effect (bifeprunox—placebo): Endpoint LOCF; for mean change (SD) from Baseline to Endpoint in PANSS general psychopathology subscale score: LOCF, ITT
# Excerpt: SECONDARY OBJECTIVES To assess the efficacy of bifeprunox in treating schizophrenia using the Positive Symptom sub-scale score of the PANSS, the Negative Symptom sub-scale score of the PANSS, the General Psychopathology sub-scale of the PANSS, Brief Psychiatric Rating Scale (BPRS) total score derived from the PANSS, BPRS psychosis score derived from the PANSS, the Clinical Global Impression Severity of Illness score (CGI-S), the Clinical Global Impression Improvement score (CGI-I), CGI-I responder rate, PANSS responder rate based on the PANSS total score, Calgary Depression Scale for Schizophrenia (CDSS), and Subject Satisfaction rating.
# There were four treatment arms in this study, approximately 144 subjects per arm. […] After completing the Single-Blind Placebo Lead-in Period of at least three days, bifeprunox-treated subjects were titrated from 0.25 mg up to 20 mg/day or 30 mg/day according to a standardized titration scheme over a seven- or eight-day period, respectively. When the assigned dose was reached, subjects were maintained at that dose for the remainder of the six week treatment period. […] Subjects were hospitalized (if not already inpatients) after eligibility for study entry was verified, starting from the Screening Visit until at least 10 days after Baseline. Subjects could be hospitalized longer than 10 days if considered medically necessary by the Investigator. Rating scale assessments for efficacy and abnormal movement disorders were done weekly except for Week 5. […] Subject satisfaction with study medication was assessed at Week 6.
# [2] = tested on: adult subjects with schizophrenia; assay: PANSS responder rates, Clinical Study Three; conditions: for PANSS 20% definition response rate No, % / PANSS 20% definition response rate Yes, %: Week 6/Endpoint, LOCF; for 20% PANSS responder rate: Endpoint LOCF
# Experimental: There were four treatment arms in this study, approximately 144 subjects per arm. […] After completing the Single-Blind Placebo Lead-in Period of at least three days, bifeprunox-treated subjects were titrated from 0.25 mg up to 20 mg/day or 30 mg/day according to a standardized titration scheme over a seven- or eight-day period, respectively. When the assigned dose was reached, subjects were maintained at that dose for the remainder of the six week treatment period. […] Subjects were hospitalized (if not already inpatients) after eligibility for study entry was verified, starting from the Screening Visit until at least 10 days after Baseline. Subjects could be hospitalized longer than 10 days if considered medically necessary by the Investigator. Rating scale assessments for efficacy and abnormal movement disorders were done weekly except for Week 5. Safety assessments were performed at Screening, during treatment and at the end of the study. Subject satisfaction with study medication was assessed at Week 6. Samples of whole blood were obtained at Weeks 2, 4, and 6 for determination of bifeprunox in plasma.
# CLINICAL STUDY THREE. A PANSS responder was defined as a subject whose PANSS total score decreased by 20% or more from Baseline to Endpoint. As exploratory analyses, responder rates were also analyzed using a 30%, 35%, 40%, and 50% definition of responder.
# [3] = tested on: adult subjects with schizophrenia; assay: PANSS total score, Clinical Study One (6-week, risperidone-referenced); conditions: for Change from Baseline in PANSS Total Score, Mean (S.D.) / Change from Baseline in PANSS Total Score, Median / PANSS Total Score, Trt Effect (bifeprunox minus placebo mean change from Baseline): ITT; for PANSS Total Score, Trt Effect (bifeprunox minus placebo mean change from Baseline): ANCOVA
# Experimental: There were five treatment groups in this study. […] Study medication was administered once daily. After Baseline measurements were performed, the titration phase was begun. Bifeprunox treated subjects were titrated up to 5 mg, 10 mg or 20 mg according to a standardized titration schedule (Day 1: 0.125 mg, Day 2: 0.25 mg, Day 3: 0.5 mg, Day 4: 1.0 mg, Day 5: 2.0 mg, Day 6: 5.0 mg, Day 7: 10.0 mg, Day 8: 20 mg). When the assigned dose was reached, subjects were maintained at that dose for the remainder of the six-week treatment period.
# Test Product. Dose and Mode of Administration: Bifeprunox tablets, total daily dose 0.125 mg to 20 mg administered orally using a once daily dosing regimen.
# The change in the Positive and Negative Symptom Scale (PANSS) total score, from baseline to endpoint, was the primary outcome measure. Secondary efficacy measures included: PANSS positive, PANSS negative, PANSS general psychopathology (GPP) score, PANSS-derived Brief Psychiatric Rating Scale (BPRS) score, Clinical Global Impressions-Severity of Illness (CGI-S), CGI-Improvement (CGI-I) scores, and responder rates. Safety and tolerability evaluations included extrapyramidal symptoms (EPS), weight gain, lipid profile, and serum prolactin.
# [4] = Bifeprunox 10 mg, Endpoint LOCF
# [5] = Bifeprunox 20 mg, Endpoint LOCF
compound,measurement,setting,value
"O=c1[nH]c2cccc(N3CCN(Cc4cccc(-c5ccccc5)c4)CC3)c2o1 [Bifeprunox, 7-[4-([1,1′-biphenyl]-3-ylmethyl)-1-piperazinyl]-2(3H)-benzoxazolone]","PANSS general psychopathology subscale score, treatment effect (bifeprunox—placebo)",[1]; bifeprunox 20 mg,−1.5
same,mean change (SD) from Baseline to Endpoint in PANSS general psychopathology subscale score,[1]; bifeprunox 20 mg,−6.1 (10.7)
same,"PANSS general psychopathology subscale score, treatment effect (bifeprunox—placebo)",[1]; bifeprunox 30 mg,−0.9
same,mean change (SD) from Baseline to Endpoint in PANSS general psychopathology subscale score,[1]; bifeprunox 30 mg,−5.8 (10.3)
same,"PANSS 20% definition response rate No, %",[2]; 20 mg,58%
same,"PANSS 20% definition response rate Yes, %",[2]; 20 mg,42%
same,"PANSS 20% definition response rate No, %",[2]; 30 mg,61%
same,"PANSS 20% definition response rate Yes, %",[2]; 30 mg,39%
same,20% PANSS responder rate,[2]; bifeprunox 20 mg,42%
same,20% PANSS responder rate,[2]; bifeprunox 30 mg,39%
same,"Change from Baseline in PANSS Total Score, Mean (S.D.)","[3]; Bifeprunox 5 mg, Endpoint LOCF",−9.7 (17.5)
same,"Change from Baseline in PANSS Total Score, Median","[3]; Bifeprunox 5 mg, Endpoint LOCF",−8
same,"PANSS Total Score, Trt Effect (bifeprunox minus placebo mean change from Baseline)","[3]; Bifeprunox 5 mg, Endpoint LOCF",−4.1
same,"Change from Baseline in PANSS Total Score, Mean (S.D.)","[3]; Bifeprunox 5 mg, Week 1, LOCF",−3.9 (13.1)
same,"Change from Baseline in PANSS Total Score, Median","[3]; Bifeprunox 5 mg, Week 1, LOCF",−4
same,"Change from Baseline in PANSS Total Score, Mean (S.D.)","[3]; Bifeprunox 5 mg, Week 2, LOCF",−6.7 (14.9)
same,"Change from Baseline in PANSS Total Score, Median","[3]; Bifeprunox 5 mg, Week 2, LOCF",−7
same,"Change from Baseline in PANSS Total Score, Mean (S.D.)","[3]; Bifeprunox 5 mg, Week 3, LOCF",−7.7 (16.1)
same,"Change from Baseline in PANSS Total Score, Median","[3]; Bifeprunox 5 mg, Week 3, LOCF",−7
same,"Change from Baseline in PANSS Total Score, Mean (S.D.)","[3]; Bifeprunox 5 mg, Week 4, LOCF",−8.7 (17.1)
same,"Change from Baseline in PANSS Total Score, Median","[3]; Bifeprunox 5 mg, Week 4, LOCF",−7
same,"Change from Baseline in PANSS Total Score, Mean (S.D.)",[3]; [4],−5.0 (18.3)
same,"Change from Baseline in PANSS Total Score, Median",[3]; [4],−4
same,"PANSS Total Score, Trt Effect (bifeprunox minus placebo mean change from Baseline)",[3]; [4],0.6
same,"Change from Baseline in PANSS Total Score, Mean (S.D.)","[3]; Bifeprunox 10 mg, Week 1, LOCF",−2.9 (11.7)
same,"Change from Baseline in PANSS Total Score, Median","[3]; Bifeprunox 10 mg, Week 1, LOCF",−1
same,"Change from Baseline in PANSS Total Score, Mean (S.D.)","[3]; Bifeprunox 10 mg, Week 2, LOCF",−4.2 (14.6)
same,"Change from Baseline in PANSS Total Score, Median","[3]; Bifeprunox 10 mg, Week 2, LOCF",−3
same,"Change from Baseline in PANSS Total Score, Mean (S.D.)","[3]; Bifeprunox 10 mg, Week 3, LOCF",−4.6 (17.4)
same,"Change from Baseline in PANSS Total Score, Median","[3]; Bifeprunox 10 mg, Week 3, LOCF",−3
same,"Change from Baseline in PANSS Total Score, Mean (S.D.)","[3]; Bifeprunox 10 mg, Week 4, LOCF",−4.1 (17.2)
same,"Change from Baseline in PANSS Total Score, Median","[3]; Bifeprunox 10 mg, Week 4, LOCF",−5
same,"Change from Baseline in PANSS Total Score, Mean (S.D.)",[3]; [5],−11.3 (17.0)
same,"Change from Baseline in PANSS Total Score, Median",[3]; [5],−11
same,"PANSS Total Score, Trt Effect (bifeprunox minus placebo mean change from Baseline)",[3]; [5],−5.8
same,"Change from Baseline in PANSS Total Score, Mean (S.D.)","[3]; Bifeprunox 20 mg, Week 1, LOCF",−6.3 (11.5)
same,"Change from Baseline in PANSS Total Score, Median","[3]; Bifeprunox 20 mg, Week 1, LOCF",−5
same,"Change from Baseline in PANSS Total Score, Mean (S.D.)","[3]; Bifeprunox 20 mg, Week 2, LOCF",−9.0 (14.0)
same,"Change from Baseline in PANSS Total Score, Median","[3]; Bifeprunox 20 mg, Week 2, LOCF",−8
same,"Change from Baseline in PANSS Total Score, Mean (S.D.)","[3]; Bifeprunox 20 mg, Week 3, LOCF",−11.2 (14.5)
same,"Change from Baseline in PANSS Total Score, Median","[3]; Bifeprunox 20 mg, Week 3, LOCF",−11
same,"Change from Baseline in PANSS Total Score, Mean (S.D.)","[3]; Bifeprunox 20 mg, Week 4, LOCF",−11.2 (15.9)
same,"Change from Baseline in PANSS Total Score, Median","[3]; Bifeprunox 20 mg, Week 4, LOCF",−11
same,"superiority to placebo, primary efficacy endpoint (PANSS total score)","[3]; bifeprunox 5 mg, 6 weeks",did not show superiority to placebo
same,"improvement compared to placebo, any efficacy endpoint","[3]; bifeprunox 10 mg, 6 weeks",did not show statistically greater improvement for any efficacy endpoint
same,efficacy compared to placebo (PANSS total and subscale scores),"[3]; bifeprunox 20 mg once daily, 6 weeks",effective in reducing both positive and negative symptoms of schizophrenia
same,greater improvement from Baseline in PANSS total score compared with placebo,"[3]; bifeprunox 20 mg, 6 weeks",5.8 point
same,reduction in the PANSS total score compared to placebo,"[3]; bifeprunox 20 mg, 6 weeks (Example 4)",statistically significant (P<0.05) compared to placebo at Week 3 and Week 6/endpoint

# — patent publication US20090068290A1, “BIFEPRUNOX DOSES FOR TREATING SCHIZOPHRENIA” (priority 2006, published 2009)
